Peptide text beside a SMILES is read from it.
Assays:
Test in all cases: Fluorescence polarization SH3 domain-PRP binding
[1] = target: T1, SH3PXD2A-1 SH3 domain (aa 166-225) (Homo sapiens, UniProt Q5TCZ1); conditions: FP, 0.2 µM fluorescein-labeled peptide, SH3 domain 0-200 µM, Tris/HCl pH 7.5, 25 °C, quadratic fit
T1 construct: 166-225; GST (N); made in house; host or cells: Escherichia coli CodonPlus, Rosetta, BL21(DE3)
T1 sequence (Q5TCZ1 166-225): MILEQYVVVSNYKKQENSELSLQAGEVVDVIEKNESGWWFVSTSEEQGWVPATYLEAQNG
Experimental: (§1) The interaction between fluorescein-labeled proline-rich peptides (0.2 µM) and increasing concentrations of SH3 domains (ranging from 0 to 200 µM) was measured in a buffer (containing 30 mM Tris/HCl (pH 7.5), 5 mM MgCl2, and 3 mM DTT at 25 °C) in a total volume of 200 µL using a Fluoromax 4 fluorimeter in polarization mode and a quartz glass fluorescence cuvette (Hellma Ultra-Micro Cuvette 105.250-QS, Thermo Fisher Scientific, Waltham, MA USA). Excitation was performed at 470 nm and emission was measured at 560 nm. Dissociation constants (Kd) were determined by fitting the concentration-dependent binding curve to a quadratic ligand binding equation.
(§2) Fluorescence polarization measurements were performed to determine the binding affinities of SH3 domain–PRP interaction pairs from the dot blot analysis. SH3 proteins were titrated at increasing concentrations against fluorescent PRPs, which were kept at a constant concentration of 0.2 µM. GRB2-2^W193K, which is defective in the binding of PRPs such as RP1, was used as a negative control as previously described. […] The resulting data (Figure S6) allowed the evaluation of equilibrium dissociation constants (Kd) for 45 interactions between the SH3 domains and the PRPs (Figure 2B; Table S6).
(§3) Figure S6. Interactions of the SH3 domains with fluorescent PRPs measured by fluorescence polarization.
(§4) Fluorescent peptides (0.2 µM) were titrated with increasing concentrations of the corresponding SH3 domains.
(§5) GRB2-2W193K, defective in the binding of PRPs such as RP1, was used as a negative control as previously described. The x-axis represents SH3 domain concentrations as GST fusion proteins in µM, while the y-axis represents fluorescence polarization. The equilibrium dissociation constants (Kd) for the respective measurements were determined by fitting the titration curves to a quadratic ligand-binding equation (solid lines). All Kd values are […]
(§6) Error bars are derived from the fitting errors.

[2] = target: T2, SRC SH3 domain (aa 77-140) (Homo sapiens, UniProt P12931); conditions: FP, 0.2 µM fluorescein-labeled peptide, SH3 domain 0-200 µM, Tris/HCl pH 7.5, 25 °C, quadratic fit
T2 construct: 77-140; GST (N); made in house; host or cells: Escherichia coli CodonPlus, Rosetta, BL21(DE3)
Experimental: as §1, §2, §3, §4, §5, §6

[3] = target: T3, NCK1-1 SH3 domain (aa 2-61) (Homo sapiens, UniProt P16333); conditions: FP, 0.2 µM fluorescein-labeled peptide, SH3 domain 0-200 µM, Tris/HCl pH 7.5, 25 °C, quadratic fit, read-out: Kd
T3 construct: 2-61; GST (N); made in house; host or cells: Escherichia coli CodonPlus, Rosetta, BL21(DE3)
Experimental: as §1, §2, §3, §4, §5, §6

[4] = target: T4, ITSN1-4 SH3 domain (aa 1070-1138) (Homo sapiens, UniProt Q15811); conditions: FP, 0.2 µM fluorescein-labeled peptide, SH3 domain 0-200 µM, Tris/HCl pH 7.5, 25 °C, quadratic fit
T4 construct: 1070-1138; GST (N); made in house; host or cells: Escherichia coli CodonPlus, Rosetta, BL21(DE3)
T4 sequence (Q15811 1070-1138): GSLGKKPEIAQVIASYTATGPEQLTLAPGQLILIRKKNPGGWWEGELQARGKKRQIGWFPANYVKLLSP
Experimental: as §1, §2, §3, §4, §5, §6

[5] = target: T5, NCK1-2 SH3 domain (aa 106-165) (Homo sapiens, UniProt P16333); conditions: FP, 0.2 µM fluorescein-labeled peptide, SH3 domain 0-200 µM, Tris/HCl pH 7.5, 25 °C, quadratic fit, read-out: Kd
T5 construct: 106-165; GST (N); made in house; host or cells: Escherichia coli CodonPlus, Rosetta, BL21(DE3)
Experimental: as §1, §2, §3, §4, §5, §6

[6] = target: T6, ITSN1-5 SH3 domain (aa 1155-1214) (Homo sapiens, UniProt Q15811); conditions: FP, 0.2 µM fluorescein-labeled peptide, SH3 domain 0-200 µM, Tris/HCl pH 7.5, 25 °C, quadratic fit
T6 construct: 1155-1214; GST (N); made in house; host or cells: Escherichia coli CodonPlus, Rosetta, BL21(DE3)
T6 sequence (Q15811 1155-1214): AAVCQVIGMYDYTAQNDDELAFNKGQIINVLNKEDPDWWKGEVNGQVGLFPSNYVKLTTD
Experimental: as §1, §2, §3, §4, §5, §6

[7] = target: T7, SH3GLB1 SH3 domain (aa 305-365) (Homo sapiens, UniProt Q9Y371); conditions: FP, 0.2 µM fluorescein-labeled peptide, SH3 domain 0-200 µM, Tris/HCl pH 7.5, 25 °C, quadratic fit
T7 construct: 305-365; GST (N); made in house; host or cells: Escherichia coli CodonPlus, Rosetta, BL21(DE3)
T7 sequence (Q9Y371 305-365): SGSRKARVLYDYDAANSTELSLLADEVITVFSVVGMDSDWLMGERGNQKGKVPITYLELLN
Experimental: as §1, §2, §3, §4, §5, §6

[8] = target: T8, RASA1 SH3 domain (aa 279–341) (Homo sapiens, UniProt P20936); conditions: FP, 0.2 µM fluorescein-labeled peptide, SH3 domain 0-200 µM, Tris/HCl pH 7.5, 25 °C, quadratic fit
T8 construct: 279–341; GST (N); made in house; host or cells: Escherichia coli CodonPlus, Rosetta, BL21(DE3)
T8 sequence (P20936 279-341): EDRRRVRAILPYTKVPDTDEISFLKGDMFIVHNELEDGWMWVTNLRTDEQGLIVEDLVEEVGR
Experimental: as §1, §2, §3, §4, §5, §6

[9] = target: T9, SORBS1-1 SH3 domain (aa 793-852) (Homo sapiens, UniProt Q9BX66); conditions: FP, 0.2 µM fluorescein-labeled peptide, SH3 domain 0-200 µM, Tris/HCl pH 7.5, 25 °C, quadratic fit
T9 construct: 793-852; GST (N); made in house; host or cells: Escherichia coli CodonPlus, Rosetta, BL21(DE3)
T9 sequence (Q9BX66 793-852): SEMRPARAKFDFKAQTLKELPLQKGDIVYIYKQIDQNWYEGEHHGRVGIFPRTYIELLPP
Experimental: as §1, §2, §3, §4, §5, §6

[10] = target: T10, RIMBP3B-1 SH3 domain (aa 832-899) (Homo sapiens, UniProt A6NNM3); conditions: FP, 0.2 µM fluorescein-labeled peptide, SH3 domain 0-200 µM, Tris/HCl pH 7.5, 25 °C, quadratic fit
T10 construct: 832-899; GST (N); made in house; host or cells: Escherichia coli CodonPlus, Rosetta, BL21(DE3)
T10 sequence (A6NNM3 832-899): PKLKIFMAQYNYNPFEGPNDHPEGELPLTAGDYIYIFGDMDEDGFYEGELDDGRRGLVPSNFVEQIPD
Experimental: as §1, §2, §3, §4, §5, §6

[11] = target: T11, SNX9 SH3 domain (aa 1-62) (Homo sapiens, UniProt Q9Y5X1); conditions: FP, 0.2 µM fluorescein-labeled peptide, SH3 domain 0-200 µM, Tris/HCl pH 7.5, 25 °C, quadratic fit
T11 construct: 1-62; GST (N); made in house; host or cells: Escherichia coli CodonPlus, Rosetta, BL21(DE3)
Experimental: as §1, §2, §3, §4, §5, §6

[12] = target: T12, NCK1-3 SH3 domain (aa 190–252) (Homo sapiens, UniProt P16333); conditions: NCK1-3 (wt); FP, 0.2 µM fluorescein-labeled peptide, SH3 domain 0-200 µM, Tris/HCl pH 7.5, 25 °C, quadratic fit; read-out: Kd
T12 construct: 190–252; GST (N); made in house; host or cells: Escherichia coli CodonPlus, Rosetta, BL21(DE3)
Experimental: as §1, §2, §3, §4, §5, §6

T2 sequence (P12931 77-140 limits assumed): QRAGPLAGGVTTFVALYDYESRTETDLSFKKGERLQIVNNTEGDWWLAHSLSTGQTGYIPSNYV
T11 sequence (Q9Y5X1 1-62): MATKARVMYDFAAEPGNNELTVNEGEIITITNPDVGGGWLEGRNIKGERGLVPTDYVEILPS

Kd [1] [µM] | Kd [2] [µM] | Kd [3] [µM] | Kd [4] [µM] | Kd [5] [µM] | Kd [6] [µM] | Kd [7] [µM] | Kd [8] [µM] | Kd [9] [µM] | Kd [10] [µM] | Kd [11] [µM] | Kd [12] [µM] | SMILES
> 200 | > 200 | > 200 | > 200 | > 200 | 23 | > 200 | > 200 | > 200 | > 200 | > 200 | > 200 | CC(C)C[C@H](NC(=O)[C@@H]1CCCN1C(=O)[C@@H](NC(=O)[C@H](CCCNC(=N)N)NC(=O)[C@@H]1CCCN1C(=O)[C@H](CO)NC(=O)[C@H](CC(N)=O)NC(=O)[C@@H]1CCCN1C(=O)[C@H](C)NC(=O)[C@@H](N)CO)[C@@H](C)O)C(=O)N[C@H](C(=O)N1CCC[C@H]1C(=O)N1CCC[C@H]1C(=O)N1CCC[C@H]1C(=O)N[C@@H](C)C(=O)N[C@@H](CO)C(=O)O)[C@@H](C)O [Peptide P1] (H-SAPNSPRTPLTPPPAS-OH)
44 | > 200 | > 200 | > 200 | > 200 | > 200 | > 200 | > 200 | > 200 | 21 | > 200 | > 200 | CC(C)C[C@H](NC(=O)[C@@H](NC(=O)[C@@H](N)C(C)C)[C@@H](C)O)C(=O)N1CCC[C@H]1C(=O)N[C@@H](Cc1c[nH]cn1)C(=O)NCC(=O)N1CCC[C@H]1C(=O)N[C@@H](CCCNC(=N)N)C(=O)N[C@@H](CO)C(=O)N[C@@H](C)C(=O)O [Peptide P2] (H-VTLPHGPRSA-OH)
18 | 2 | > 200 | > 200 | > 200 | > 200 | > 200 | > 200 | > 200 | > 200 | > 200 | > 200 | CC[C@H](C)[C@H](NC(=O)[C@H](CCCCN)NC(=O)[C@H](CO)NC(=O)[C@@H]1CCCN1C(=O)[C@H](CO)NC(=O)[C@H](CO)NC(=O)[C@H](CCC(=O)O)NC(=O)[C@H](C)NC(=O)[C@@H]1CCCN1C(=O)[C@H](C)NC(=O)[C@H](CO)NC(=O)[C@H](CCC(=O)O)NC(=O)[C@@H]1CCCN1C(=O)[C@H](CCCNC(=N)N)NC(=O)[C@H](CCCNC(=N)N)NC(=O)[C@H](CCCNC(=N)N)NC(=O)[C@@H]1CCCN1C(=O)[C@@H]1CCCN1C(=O)[C@@H](NC(=O)[C@@H]1CCCN1C(=O)[C@@H]1CCCN1C(=O)[C@@H]1CCCN1C(=O)[C@@H](NC(=O)[C@@H]1CCCN1C(=O)[C@@H](NC(=O)[C@@H](N)CCC(=O)O)C(C)C)C(C)C)C(C)C)C(=O)O [Peptide P3] (H-EVPVPPPVPPRRRPESAPAESSPSKI-OH)
> 200 | > 200 | > 200 | > 200 | > 200 | 12 | > 200 | > 200 | > 200 | > 200 | > 200 | > 200 | CC[C@H](C)[C@H](NC(=O)[C@H](C)NC(=O)[C@@H]1CCCN1C(=O)[C@@H]1CCCN1C(=O)[C@H](CO)NC(=O)[C@H](CC(=O)O)NC(=O)[C@@H](N)CC(C)C)C(=O)N1CCC[C@H]1C(=O)N1CCC[C@H]1C(=O)N[C@@H](CCCNC(=N)N)C(=O)N[C@@H](CCC(N)=O)C(=O)N1CCC[C@H]1C(=O)N[C@H](C(=O)N[C@@H](CO)C(=O)N[C@@H](CCCCN)C(=O)O)[C@@H](C)O [Peptide P4] (H-LDSPPAIPPRQPTSK-OH)
> 200 | > 200 | > 200 | > 200 | > 200 | > 200 | > 200 | > 200 | > 200 | > 200 | > 200 | > 200 | CC[C@H](C)[C@H](N)C(=O)N[C@@H](CO)C(=O)N[C@@H](CC(=O)O)C(=O)N1CCC[C@H]1C(=O)N1CCC[C@H]1C(=O)N[C@@H](CCC(=O)O)C(=O)N[C@@H](CO)C(=O)N1CCC[C@H]1C(=O)N1CCC[C@H]1C(=O)N[C@@H](CC(C)C)C(=O)N[C@@H](CC(C)C)C(=O)N1CCC[C@H]1C(=O)N1CCC[C@H]1C(=O)N[C@@H](CCCNC(=N)N)C(=O)N[C@@H](CCC(=O)O)C(=O)N1CCC[C@H]1C(=O)N[C@H](C(=O)N[C@@H](CCCNC(=N)N)C(=O)N[C@H](C(=O)N1CCC[C@H]1C(=O)N[C@@H](CC(=O)O)C(=O)N[C@H](C(=O)O)C(C)C)[C@@H](C)O)C(C)C [Peptide P5] (H-ISDPPESPPLLPPREPVRTPDV-OH)
> 200 | > 200 | > 200 | > 200 | > 200 | > 200 | > 200 | > 200 | > 200 | > 200 | > 200 | > 200 | CC(C)C[C@H](NC(=O)[C@H](Cc1c[nH]cn1)NC(=O)[C@H](CC(C)C)NC(=O)[C@@H]1CCCN1C(=O)[C@H](CO)NC(=O)[C@H](CO)NC(=O)[C@@H](N)CO)C(=O)N[C@@H](CCC(N)=O)C(=O)N1CCC[C@H]1C(=O)N1CCC[C@H]1C(=O)N1CCC[C@H]1C(=O)N[C@@H](CC(C)C)C(=O)NCC(=O)N[C@@H](CCCCN)C(=O)N[C@@H](CCCCN)C(=O)O [Peptide P6] (H-SSSPLHLQPPPLGKK-OH; N-terminus and C-terminus assumed)

Source: PMC10814857, “Functional Classification and Interaction Selectivity Landscape of the Human SH3 Domain Superfamily” (Cells, 2024)
